Test results: PMC8151276, “An Integrated Approach toward NanoBRET Tracers for Analysis of GPCR Ligand Engagement” (Molecules, 2021)

Assays:
Format in all cases: binding
CNR1 = target: T1, CNR1 (Homo sapiens, UniProt P21554); experiment: NanoBRET screen HiBiT-CNR1 in HEK293
T1 construct: purchased Promega (in-house HiBiT-GPCR construct library, NanoBRET)
Description: (§1) Each tracer candidate was screened across the entire library of HiBiT-GPCR constructs using NanoBRET as the detection modality. As depicted in Figure 4A, the specificity of interactions was evaluated through decrease in BRET due to competitive displacement of a bound tracer by excess parental compound. Each tracer was analyzed for binding to each HiBiT-GPCR fusion in the absence and in the presence of competing parental compound. Briefly, HEK293 cells were transfected with HiBiT-GPCR constructs diluted into promoterless DNA to reduce expression and maximize translocation to the cell surface. Each tracer candidate was then screened at concentrations of 1 μM and 0.1 μM across cells expressing these fusions. Cells were treated for 1.5 h with tracer either alone or in the presence of 20 μM competing parental compound (i.e., control). BRET was measured upon addition of purified LgBiT and subsequent complementation with HiBiT genetically fused to a GPCR. The specificity of interactions was assessed through a decrease in BRET signal due to competitive displacement of the bound tracer. To further gauge the robustness of these interactions, the fold response over the control (i.e., BRETtracer/BRETcontrol) was calculated. We chose a 1.5-fold response, which translates to ≥7-fold signal over noise as the minimal threshold required to score an interaction as positive. […]. Below we highlight the screening results obtained for our exemplary fluorescent tracers based on Clozapine, Amitriptyline and AZD1283.
(§2) HiBiT-GPCR DNA constructs were diluted in 10 mM Tris pH 8 to a final concentration of 0.01 μg/μL, arrayed in 96-well plates and stored at −20 °C. For transfection, HEK293 cells were suspended in Opti-MEM (without phenol red) supplemented with 2% fetal bovine serum (Seradigm) and 100 units/mL penicillin–streptomycin (Gibco) at a final concentration of 220,000 cells/mL and dispensed into white 96-well plates at 90 μL/well. Subsequent transfections and screens were carried using an Agilent Bravo Automated Liquid Handling Platform. First, the 96-well HiBiT DNA arrays were diluted 25-fold in Opti-MEM (without serum or phenol red) to a final concentration of 0.0004 μg/μL and 20 μL of the diluted DNAs were transferred into new 96-well plates. Next, promoterless carrier DNA (1 μg/μL) was diluted 25-fold (0.04 μg/μL) and then dispensed into the diluted arrays at 20 μL/well. Following brief mixing, Viafect transfection reagent (Promega) diluted 16-fold into Opti-MEM was dispensed into the plates at 40 μL/well. After mixing by pipetting, plates were incubated for 10 min on the pipetting station deck. The DNA-transfection reagent complexes were then added to plates containing cells. To facilitate the screen, 10 μL of DNA-transfection reagent complexes were added in duplicates to the top 4 and bottom 4 rows, resulting in two identical 48-well arrays per plate. Plates with transfected cells were incubated for 18–20 h at 37 °C/5% CO2. A screen of each tracer across the entire library using two different concentrations requires duplicate plates of transfected cells. Depending on the number of tracers being screened, transfections can be scaled up using the same ratios. The next day, for each tracer, four 20× screening solutions in tracer dilution buffer (Promega) were prepared: two duplicates at final concentration of 20 μM and two duplicates at a final concentration of 2 μM. A competing unmodified compound was added to one of each duplicate at a final concentration of 400 μM. The four resulting solutions were diluted 4-fold in Opti-MEM without serum or phenol red to generate 5× solutions (5 µM and 0.5 µM tracer +/− 100 μM competing compound). To screen the library, a BioTek MultiFlo FX liquid dispenser was used to dispense 22.5 µL of tracer solution to the top 4 rows and 22.5 µL tracer + competing compound solution to the 4 bottom rows. Plates were briefly mixed on an orbital shaker and incubated for 1.5 h at room temperature. […]

CCR5 = target: T2, CCR5 (Homo sapiens, UniProt P51681); experiment: NanoBRET screen HiBiT-CCR5 in HEK293
T2 construct: purchased Promega (in-house HiBiT-GPCR construct library, NanoBRET)
Description: as §1, §2

MC4R = target: T3, MC4R (Homo sapiens, UniProt P32245); experiment: NanoBRET screen HiBiT-MC4R in HEK293
T3 construct: purchased Promega (in-house HiBiT-GPCR construct library, NanoBRET)
Description: as §1, §2

CCR3 = target: T4, CCR3 (Homo sapiens, UniProt P51677); experiment: NanoBRET screen HiBiT-CCR3 in HEK293
T4 construct: purchased Promega (in-house HiBiT-GPCR construct library, NanoBRET)
T4 sequence (P51677 1-355): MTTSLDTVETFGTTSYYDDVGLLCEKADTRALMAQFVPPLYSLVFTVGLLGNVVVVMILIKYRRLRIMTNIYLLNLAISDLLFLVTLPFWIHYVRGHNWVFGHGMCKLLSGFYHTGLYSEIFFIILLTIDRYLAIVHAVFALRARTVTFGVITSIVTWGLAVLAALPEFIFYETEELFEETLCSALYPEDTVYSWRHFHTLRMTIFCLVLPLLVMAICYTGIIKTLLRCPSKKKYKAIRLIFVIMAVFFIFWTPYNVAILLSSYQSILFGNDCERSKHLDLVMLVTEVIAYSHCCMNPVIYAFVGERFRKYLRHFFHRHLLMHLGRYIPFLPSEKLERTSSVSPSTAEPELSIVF
Description: as §1, §2

T3 sequence (P32245 whole entry): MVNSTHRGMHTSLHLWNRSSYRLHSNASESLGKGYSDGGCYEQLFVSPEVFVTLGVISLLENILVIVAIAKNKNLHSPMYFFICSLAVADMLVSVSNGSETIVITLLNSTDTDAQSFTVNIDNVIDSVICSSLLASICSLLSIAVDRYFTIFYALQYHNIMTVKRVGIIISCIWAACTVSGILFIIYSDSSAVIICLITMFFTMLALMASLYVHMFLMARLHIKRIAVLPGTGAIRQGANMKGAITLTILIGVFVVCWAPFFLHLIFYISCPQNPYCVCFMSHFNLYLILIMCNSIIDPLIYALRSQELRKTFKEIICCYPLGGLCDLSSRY
T2 sequence (P51681 whole entry): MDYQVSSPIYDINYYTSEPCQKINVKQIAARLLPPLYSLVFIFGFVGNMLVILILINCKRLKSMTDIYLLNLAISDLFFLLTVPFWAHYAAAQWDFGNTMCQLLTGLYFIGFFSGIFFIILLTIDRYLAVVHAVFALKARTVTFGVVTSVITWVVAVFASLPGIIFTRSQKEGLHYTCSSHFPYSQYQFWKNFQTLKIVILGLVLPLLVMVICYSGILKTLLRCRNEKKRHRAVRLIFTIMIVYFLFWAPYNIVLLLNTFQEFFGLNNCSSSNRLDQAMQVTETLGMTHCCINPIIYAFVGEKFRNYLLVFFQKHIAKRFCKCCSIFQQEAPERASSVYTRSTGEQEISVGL
T1 sequence (P21554 whole entry): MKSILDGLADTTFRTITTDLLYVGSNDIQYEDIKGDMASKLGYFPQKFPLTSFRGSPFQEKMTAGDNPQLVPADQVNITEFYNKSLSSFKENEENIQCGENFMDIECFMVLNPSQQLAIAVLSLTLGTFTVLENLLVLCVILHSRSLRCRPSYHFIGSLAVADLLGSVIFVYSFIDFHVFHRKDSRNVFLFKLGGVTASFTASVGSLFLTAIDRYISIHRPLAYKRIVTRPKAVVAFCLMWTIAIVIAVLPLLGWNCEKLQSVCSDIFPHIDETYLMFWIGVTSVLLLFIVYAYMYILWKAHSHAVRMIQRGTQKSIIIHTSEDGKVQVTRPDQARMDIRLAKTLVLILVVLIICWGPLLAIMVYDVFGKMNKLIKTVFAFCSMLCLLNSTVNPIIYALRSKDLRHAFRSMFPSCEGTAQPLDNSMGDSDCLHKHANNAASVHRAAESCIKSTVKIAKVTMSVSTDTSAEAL

| Compound | NanoBRET Fold Response (CNR1; CNR1, tracer 0.1μM) | NanoBRET Fold Response (CNR1; CNR1, tracer 1μM) | NanoBRET Fold Response (CCR5; CCR5, tracer 0.1μM) | NanoBRET Fold Response (CCR5; CCR5, tracer 1μM) | NanoBRET Fold Response (MC4R; MC4R, tracer 0.1μM) | NanoBRET Fold Response (MC4R; MC4R, tracer 1μM) | NanoBRET Fold Response (CCR3; CCR3, tracer 0.1μM) | NanoBRET Fold Response (CCR3; CCR3, tracer 1μM) | further results |
| --- | --- | --- | --- | --- | --- | --- | --- | --- | --- |
| O=C(CCOCCOCCOCCOCCNC(=O)CCc1ccc2n1[B-](F)(F)[N+]1=C(c3ccc[nH]3)C=CC1=C2)NCCCN1CCN(C2=Nc3cc(Cl)ccc3Nc3ccccc32)CC1 [Clozapine-a-2-NB590] | – | – | – | – | – | – | – | – | NanoBRET Fold Response (CNR1; CNR1, 0.1μM tracer): 1.02; NanoBRET Fold Response (CNR1; CNR1, 1μM tracer): 1.04; NanoBRET Fold Response (CCR5; CCR5, 0.1μM tracer): 1.07; NanoBRET Fold Response (CCR5; CCR5, 1μM tracer): 0.90; NanoBRET Fold Response (MC4R; MC4R, 0.1μM tracer): 1.02; NanoBRET Fold Response (MC4R; MC4R, 1μM tracer): 1.01; NanoBRET Fold Response (CCR3; CCR3, 0.1μM tracer): 0.95; NanoBRET Fold Response (CCR3; CCR3, 1μM tracer): 0.78 |
| CCCn1c(=O)c2[nH]c(-c3ccc(OCC(=O)NCCNC(=O)CCOCCNC(=O)c4ccc(CNC(=O)CCc5ccc6n5[B-](F)(F)[N+]5=C(c7ccc[nH]7)C=CC5=C6)cc4)cc3)nc2n(CCC)c1=O [XAC-3-NB590] | 1.01 | 1.00 | 0.83 | 0.86 | 1.02 | 1.04 | 1.28 | 0.79 | – |
| O=C(CCc1ccc2n1[B-](F)(F)[N+]1=C(c3ccc[nH]3)C=CC1=C2)NCc1ccc(C(=O)NCCOCCOCCNCC(O)COc2cccc3ccccc23)cc1 (stereo not shown) [Propranolol-3-NB590] | – | – | – | – | – | – | – | – | NanoBRET Fold Response (CNR1; CNR1, 0.1μM): 0.99; NanoBRET Fold Response (CNR1; CNR1, 1μM): 1.00; NanoBRET Fold Response (CCR5; CCR5, 0.1μM): 1.09; NanoBRET Fold Response (CCR5; CCR5, 1μM): 0.96; NanoBRET Fold Response (MC4R; MC4R, 0.1μM): 0.98; NanoBRET Fold Response (MC4R; MC4R, 1μM): 0.99; NanoBRET Fold Response (CCR3; CCR3, 0.1μM): 1.04; NanoBRET Fold Response (CCR3; CCR3, 1μM): 1.01 |
| O=C(CCc1ccc2n1[B-](F)(F)[N+]1=C(c3ccc[nH]3)C=CC1=C2)NCc1ccc(C(=O)NCCOCCC(=O)N[C@@H]2CC[C@@]3(O)[C@H]4Cc5ccc(O)c6c5[C@@]3(CCN4CC3CC3)[C@H]2O6)cc1 [Naltrexone-3-NB590] | 0.96 | 0.95 | 1.21 | 1.11 | 1.06 | 1.06 | 1.35 | 0.89 | – |
| N#CN=C(NCCCOc1cccc(CN2CCCCC2)c1)NCCNC(=O)CCOCCOCCOCCOCCNC(=O)CCc1ccc2n1[B-](F)(F)[N+]1=C(c3ccc[nH]3)C=CC1=C2 [Aminopotentidine-2-NB590] | 0.98 | 1.00 | 1.00 | 1.11 | 0.99 | 0.89 | 0.95 | 0.89 | – |
| COc1ccc2c(n1)c(CCNC(C)=O)cn2CCNC(=O)CCc1ccc2n1[B-](F)(F)[N+]1=C(c3ccc[nH]3)C=CC1=C2 [Azamelatonin-1-NB590] | – | – | – | – | – | – | – | – | NanoBRET Fold Response (CNR1; 0.1μM tracer): 1.01; NanoBRET Fold Response (CNR1; 1μM tracer): 0.95; NanoBRET Fold Response (CCR5; 0.1μM tracer): 1.29; NanoBRET Fold Response (CCR5; 1μM tracer): 0.63; NanoBRET Fold Response (MC4R; 0.1μM tracer): 0.87; NanoBRET Fold Response (MC4R; 1μM tracer): 1.03; NanoBRET Fold Response (CCR3; 0.1μM tracer): 1.27; NanoBRET Fold Response (CCR3; 1μM tracer): 0.96 |
| CC(C)N(CC[C@H](c1ccccc1)c1cc(CCNC(=O)c2ccc(CNC(=O)CCc3ccc4n3[B-](F)(F)[N+]3=C(c5ccc[nH]5)C=CC3=C4)cc2)ccc1O)C(C)C [Tolterodine-BZ-NB590] | 1.01 | 0.13 | 1.09 | 0.97 | 1.00 | 1.01 | 0.98 | 0.72 | – |
| CN1CCN(C2=Nc3cc(Cl)ccc3Nc3ccc(CNC(=O)CCOCCOCCOCCOCCNC(=O)CCc4ccc5n4[B-](F)(F)[N+]4=C(c6ccc[nH]6)C=CC4=C5)cc32)CC1 [Clozapine-b-2-NB590] | – | – | – | – | – | – | – | – | NanoBRET Fold Response (CNR1; CNR1, 0.1μM tracer): 1.01; NanoBRET Fold Response (CNR1; CNR1, 1μM tracer): 1.03; NanoBRET Fold Response (CCR5; CCR5, 0.1μM tracer): 1.05; NanoBRET Fold Response (CCR5; CCR5, 1μM tracer): 0.92; NanoBRET Fold Response (MC4R; MC4R, 0.1μM tracer): 1.03; NanoBRET Fold Response (MC4R; MC4R, 1μM tracer): 1.05; NanoBRET Fold Response (CCR3; CCR3, 0.1μM tracer): 0.98; NanoBRET Fold Response (CCR3; CCR3, 1μM tracer): 1.00 |
